Measured values published in patent publication US10548898B2, “Quinazoline compounds” (Gilead Sciences, Inc., priority 2014, dated 2020).
Read-outs that look alike come from different tables or passages of the source.

Tests used:
Type in all cases: cell-based
[1] = tested on: HIV-1 HBX2 (wild type); test: High throughput cytopathic effect assay in MT-4 cells, wild type HIV-1
Procedure, shortened: (§1)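 MT-4 cells infected 1 h at 37 °C at MOI 0.0005, then plated onto ten-point half-log compound dilutions and incubated 5 days. Cell viability read by CellTiter-Glo luminescence, normalized to AZT and DMSO controls as % CPE protection; EC50 from four-parameter fit.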

[2] = tested on: HIV-1 reverse transcriptase mutant K103N; test: High throughput cytopathic effect assay in MT-4 cells, K103N mutant; settings: for EC50: Human immunodeficiency virus 1, MT4, 120 h, read-out: MT4 EC50 (nM) against K103N; for FC against mutant K103N: fold change of MT4 EC50 versus w.t. assay 2
Procedure, shortened: as §1

[3] = tested on: HIV-1 reverse transcriptase mutant Y181C; test: High throughput cytopathic effect assay in MT-4 cells, Y181C mutant; settings: for EC50: Human immunodeficiency virus 1, MT4, 120 h, read-out: MT4 EC50 (nM) against Y181C; for FC against mutant Y181C: fold change of MT4 EC50 versus w.t. assay 2
Procedure, shortened: as §1

[4] = tested on: HIV-1 recombinant strain encoding reverse transcriptase mutation K103N; test: Resistance profile against HIV-1 RT mutants in MT-2 cells, K103N; settings: ratio of mean EC50 mutant/WT virus
Procedure: (§2) Compounds were tested for antiviral activity against a panel of NNRTI resistant viruses. A panel of 8 clonal site-directed mutant viruses representing the major resistance development pathways against rilpivirine (“RPV”), efavirenz (“EFV”), and nevirapine (“NVP”), containing both single and double mutations within HIV-1 reverse transcriptase was employed. Further details and background can be found in Janssen et al. J. Med. Chem, 2005, 48, 1901-1909; Das et al., Proc. Nat. Acad. Sci., 2008, vol., 105, no. 5, 1466-1471; and Kuroda et al., Nature Chemistry, 2013, DOI: 10.1038/NCHEM. 1559. […] HIV-1 recombinant strains encoding reverse transcriptase mutations K103N, Y181C, Y188L, G190A, K103N/Y181C, L1001/Y181C, E138K or E138KIM 184V were constructed by site-directed mutagenesis. Wild-type and mutant viruses were prepared by transfecting infectious proviral HXB2-based cDNA clones into MT-2 cells and harvesting the cell supernatants. MT-2 cells were infected with wild-type and mutant HIV-1 strains at a multiplicity of infection (MOI) of 0.005 by gentle mixing for 3 hours at 37° C. and then added at a density of 16,667 cells per well in 50 μL complete RPMI cell culture media (containing 10% fetal bovine serum (FBS) and 10% penicillin-streptomycin) to 96-well plates containing 50 μL of a 3-fold serial dilution of test compounds in RPMI medium. After 5 days of incubation at 37° C. in a humidified incubator in the presence of 5% CO2. 100 μL of Cell Titer-Glo™ Reagent (Promega Biosciences, Inc., Madison, Wis.) was added to each well and the relative light units (RLU) measured on an Envision plate reader. […] The EC50 value was defined as the compound concentration inducing a 50% decrease in virus replication. Data analysis for the antiviral activity observed in MT-2 cells was performed using XL-Fit™ software (IDBS, Guildford, Surrey, UK) to calculate EC50 from an 8-point dose-response curve using the following equation:
(§3) [formula] where y=virus inhibition, x=drug concentration, M=maximum inhibition, H=minimum inhibition and n=Hill coefficient, EC50 values (mean±standard deviation) were calculated from at least three independent experiments performed in triplicate. The level of resistance was calculated as a ratio of the mean EC50 for each mutant/WT virus. Results are disclosed in FIG. 1 and in Tables 3 and 4 below.

[5] = tested on: HIV-1 recombinant strain encoding reverse transcriptase mutation Y181C; test: Resistance profile against HIV-1 RT mutants in MT-2 cells, Y181C; settings: ratio of mean EC50 mutant/WT virus
Procedure: as §2, §3

[6] = tested on: HIV-1 recombinant strain encoding reverse transcriptase mutation L100I/Y181C; test: Resistance profile against HIV-1 RT mutants in MT-2 cells, L100I/Y181C; settings: ratio of mean EC50 mutant/WT virus
Procedure: as §2, §3

[7] = tested on: HIV-1 recombinant strain encoding reverse transcriptase mutation K103N/Y181C; test: Resistance profile against HIV-1 RT mutants in MT-2 cells, K103N/Y181C; settings: ratio of mean EC50 mutant/WT virus
Procedure: as §2, §3

[8] = tested on: HIV-1 recombinant strain encoding reverse transcriptase mutation Y188L; test: Resistance profile against HIV-1 RT mutants in MT-2 cells, Y188L; settings: ratio of mean EC50 mutant/WT virus
Procedure: as §2, §3

[9] = target: T1, hERG channels (Homo sapiens, UniProt Q12809); test: hERG assay, whole cell recordings in CHO cell line stably expressing hERG channels; settings: CHO cells, whole cell patch clamp; greater than values indicate the maximum achievable concentration in the assay
T1 construct: host or cells: CHO cell line stably expressing hERG
T1 sequence (Q12809 whole entry): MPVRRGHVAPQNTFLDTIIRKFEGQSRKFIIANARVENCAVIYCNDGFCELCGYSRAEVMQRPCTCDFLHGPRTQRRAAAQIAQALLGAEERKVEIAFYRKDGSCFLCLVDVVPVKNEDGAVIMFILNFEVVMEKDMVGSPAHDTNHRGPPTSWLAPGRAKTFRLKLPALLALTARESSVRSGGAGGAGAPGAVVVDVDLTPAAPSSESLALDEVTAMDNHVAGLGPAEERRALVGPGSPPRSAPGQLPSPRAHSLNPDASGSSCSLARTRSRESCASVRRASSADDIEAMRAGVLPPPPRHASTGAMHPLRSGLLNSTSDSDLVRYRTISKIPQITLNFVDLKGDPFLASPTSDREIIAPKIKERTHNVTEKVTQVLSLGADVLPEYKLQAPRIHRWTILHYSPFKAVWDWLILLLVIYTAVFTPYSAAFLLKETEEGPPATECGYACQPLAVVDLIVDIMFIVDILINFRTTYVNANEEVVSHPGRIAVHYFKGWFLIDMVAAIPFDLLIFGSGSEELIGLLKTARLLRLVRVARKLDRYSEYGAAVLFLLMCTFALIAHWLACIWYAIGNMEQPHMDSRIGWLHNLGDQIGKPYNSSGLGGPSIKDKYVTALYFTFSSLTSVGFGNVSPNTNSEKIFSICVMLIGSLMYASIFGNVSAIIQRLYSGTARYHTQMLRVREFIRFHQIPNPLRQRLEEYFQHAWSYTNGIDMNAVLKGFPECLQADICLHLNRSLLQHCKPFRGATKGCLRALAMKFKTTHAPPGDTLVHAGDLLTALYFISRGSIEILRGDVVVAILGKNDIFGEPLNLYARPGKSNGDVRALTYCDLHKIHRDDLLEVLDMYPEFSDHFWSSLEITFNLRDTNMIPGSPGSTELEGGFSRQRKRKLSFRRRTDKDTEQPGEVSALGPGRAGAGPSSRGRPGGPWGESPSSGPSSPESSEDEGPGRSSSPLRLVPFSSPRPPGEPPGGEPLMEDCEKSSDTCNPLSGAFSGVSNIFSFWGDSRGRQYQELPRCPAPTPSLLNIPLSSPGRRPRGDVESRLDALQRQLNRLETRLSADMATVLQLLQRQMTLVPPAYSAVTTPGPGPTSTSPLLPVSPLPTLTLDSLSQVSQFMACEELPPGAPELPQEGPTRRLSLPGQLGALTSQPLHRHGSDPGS
Procedure: AVIVA's CHO cell line, which stably expresses hERG channels, was used for the study. Cells were cultured in DMEM/F12 containing 10% FBS, 1% penicillin/streptomycin and 500 μg/ml G418. Before testing, cells were harvested using Accumax (Innovative Cell Technologies).
External Solution: 2 mM CaCl2; 2 mM MgCl2; 4 mM KCl; 150 mM NaCl; 10 mM Glucose; 10 mM HEPES; 305-315 mOsm; pH 7.4 (adjusted with 5M NaOH.)
Internal Solution: 140 mM KCl; 10 mM MgCl2; 6 mM EGTA; 5 mM HEPES-Na; 5 mM ATP-Mg; 295-305 mOsm; pH 7.25 (adjusted with 1M KOH).
Whole cell recordings were performed using PX 7000A (Axon Instruments) with AVIVA's SealChip™ technology. Cells were voltage clamped at a holding potential of −80 mV. The hERG current was then activated by a depolarizing step to −50 mV for 300 ms. This first step at −50 mV was used as a baseline for measuring peak amplitude of the tail current. Next, a voltage step to +20 mV was applied for 5 s to activate the channels. Finally, a step back to −50 mV for 5 s removed activation and the deactivating tail current was recorded.
All test articles were prepared from 10 mM DMSO stock solutions. Solutions were mixed by sonication for 20 min, followed by vigorous vortexing. Prior to testing, compounds were diluted to test concentrations in glass vials using External Solution. Dilutions were prepared no longer than 20 min prior to use.
After achieving whole cell configuration, cells were monitored for 90 s to assess stability and then washed with External Solution for 66 s. The voltage protocol was then applied to the cells every 12 s throughout the procedure. Only stable cells with recording parameters above threshold were allowed to enter the drug addition procedure.
External solution containing 0.1% DMSO (vehicle) was applied to the cells to establish a baseline. After allowing the current to stabilize for 3 to 10 min, test articles were applied. Test article solutions were added to cells in 4 separate additions. Cells were kept in test solution until effect of the test article reached steady state, to a maximum of 12 min. Next, 1 μM cisapride (positive control) was added. Finally, washout with External Solution was performed until the recovery current reached steady state.
Data analysis was performed using DataXpress (Axon Instruments), Clampfit (Axon Instruments) and Origin (OriginLab Corporation) software. The greater than values in Table 5 indicate the maximum achievable concentration in the assay (e.g., compounds achieving their solubility limit).

[10] = tested on: HIV-1 recombinant strain encoding reverse transcriptase mutation G190A; test: Resistance profile against HIV-1 RT mutants in MT-2 cells, G190A; settings: ratio of mean EC50 mutant/WT virus
Procedure: as §2, §3

[11] = tested on: HIV-1 recombinant strain encoding reverse transcriptase mutation E138K/M184V; test: Resistance profile against HIV-1 RT mutants in MT-2 cells, E138K/M184V; settings: ratio of mean EC50 mutant/WT virus
Procedure: Compounds were tested for antiviral activity against a panel of NNRTI resistant viruses. A panel of 8 clonal site-directed mutant viruses representing the major resistance development pathways against rilpivirine (“RPV”), efavirenz (“EFV”), and nevirapine (“NVP”), containing both single and double mutations within HIV-1 reverse transcriptase was employed. Further details and background can be found in Janssen et al. J. Med. Chem, 2005, 48, 1901-1909; Das et al., Proc. Nat. Acad. Sci., 2008, vol., 105, no. 5, 1466-1471; and Kuroda et al., Nature Chemistry, 2013, DOI: 10.1038/NCHEM. 1559. […] HIV-1 recombinant strains encoding reverse transcriptase mutations K103N, Y181C, Y188L, G190A, K103N/Y181C, L1001/Y181C, E138K or E138KIM 184V were constructed by site-directed mutagenesis. Wild-type and mutant viruses were prepared by transfecting infectious proviral HXB2-based cDNA clones into MT-2 cells and harvesting the cell supernatants. MT-2 cells were infected with wild-type and mutant HIV-1 strains at a multiplicity of infection (MOI) of 0.005 by gentle mixing for 3 hours at 37° C. and then added at a density of 16,667 cells per well in 50 μL complete RPMI cell culture media (containing 10% fetal bovine serum (FBS) and 10% penicillin-streptomycin) to 96-well plates containing 50 μL of a 3-fold serial dilution of test compounds in RPMI medium. After 5 days of incubation at 37° C. in a humidified incubator in the presence of 5% CO2. 100 μL of Cell Titer-Glo™ Reagent (Promega Biosciences, Inc., Madison, Wis.) was added to each well and the relative light units (RLU) measured on an Envision plate reader. […] The EC50 value was defined as the compound concentration inducing a 50% decrease in virus replication. […]
[formula] where y=virus inhibition, x=drug concentration, M=maximum inhibition, H=minimum inhibition and n=Hill coefficient, EC50 values (mean±standard deviation) were calculated from at least three independent experiments performed in triplicate. The level of resistance was calculated as a ratio of the mean EC50 for each mutant/WT virus. […]

[12] = Human immunodeficiency virus 1, MT4, 120 h, MT-4 cells, 5 days, cytopathic effect, Cell TiterGlo, read-out: MT4 EC50 (nM) against w.t.
[13] = Human immunodeficiency virus 1, MT4, read-out: MT4 EC50 (nM) against w.t. assay 2

Structure (SMILES) | EC50 [1, 12] | EC50 [1, 13] | EC50 [2] | FC against mutant K103N [2] | EC50 [3] | FC against mutant Y181C [3] | Biology resistance panel-low throughput fold change (FC) K103N [4] | Biology resistance panel-low throughput fold change (FC) Y181C [5] | Biology resistance panel-low throughput fold change (FC) L100I/Y181C [6] | Biology resistance panel-low throughput fold change (FC) K103N/Y181C [7] | Biology resistance panel-low throughput fold change (FC) Y188L [8] | hERG [9] | Biology resistance panel-low throughput fold change (FC) G190A [10] | Biology resistance panel-low throughput fold change (FC) E138K/M184V [11]
Cc1cc(/C=C/C#N)cc(C)c1-c1cccc2c(N)nc(Nc3ccc(C#N)cn3)nc12 [Compound 10, (E)-6-((4-Amino-8-(4-(2-cyanovinyl)-2,6-dimethylphenyl)quinazolin-2-yl)amino)nicotinonitrile] | 2.8 nM | 3 nM | 2.9 nM | 1.0 | 29.3 nM | 9.8 | 0.9 | 11.9 | 3.8 | 19.9 | 53.6 | >3 µM | – | –
Cc1ccnc2c1NC(=O)c1cccnc1N2C1CC1 [Nevirapine, reference compound] | 65 nM | – | – | – | – | – | 87.0 | >229 | >229 | – | >229 | – | 183.0 | –
O=C1Nc2ccc(Cl)cc2[C@@](C#CC2CC2)(C(F)(F)F)O1 [Efavirenz, reference compound] | 1.3 nM | 1.6 nM | 46.4 nM | 28.9 | 3.8 nM | 2.3 | 48.1 | 3.6 | >200 | 83.5 | 132.5 | – | 14.8 | –
Cc1cc(/C=C/C#N)cc(C)c1-c1cccc2c(N)nc(Nc3ccc(C#N)nc3)nc12 [Compound 9, (E)-5-((4-Amino-8-(4-(2-cyanovinyl)-2,6-dimethylphenyl)quinazolin-2-yl)amino)picolinonitrile] | 3.4 nM | 3.2 nM | 3.5 nM | 1.1 | 10.8 nM | 3.4 | 1.0 | 5.7 | 4.0 | 14.7 | 11.4 | >3 µM | – | –
Cc1cc(/C=C/C#N)cc(C)c1-c1cccc2cnc(Nc3ccc(C#N)cc3)nc12 [Compound 1, (E)-4-((8-(4-(2-Cyanovinyl)-2,6-dimethylphenyl)quinazolin-2-yl)amino)benzonitrile] | 3 nM | 6.2 nM | 8.8 nM | 1.4 | 17.8 nM | 2.9 | 1.3 | 5.7 | 6.9 | 14.8 | 15.2 | – | 0.6 | –
Cc1cc(/C=C/C#N)cc(C)c1-c1cccc2c(=O)[nH]c(Nc3ccc(C#N)cn3)nc12 [Compound 34, (E)-6-((8-(4-(2-Cyanovinyl)-2,6-dimethylphenyl)-4-oxo-3,4-dihydroquinazolin-2-yl)amino)nicotinonitrile] | 2.4 nM | 3 nM | 3.2 nM | 1.0 | 11.3 nM | 3.7 | 1.4 | 3.4 | 1.7 | 12.4 | 18.7 | >3 µM | – | 4.2
